Data reported in ChEMBL document CHEMBL1201862, “PubChem BioAssay data set” (2004).
Activity calls are given as the source filed them.

Tests used:
[1] = molecular target: T1, RNA-binding protein pos-1 (Caenorhabditis elegans, UniProt G5EF15); assay: disruptors of C. elegans POS-1 RNA interaction – biochemical, fluorescence polarization, dose response (AID 1964);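 further: purified POS-1 fused to maltose binding protein made in E. coli; potency of compounds blocking POS-1 binding to fluorescent RNA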
T1 sequence (G5EF15 whole entry): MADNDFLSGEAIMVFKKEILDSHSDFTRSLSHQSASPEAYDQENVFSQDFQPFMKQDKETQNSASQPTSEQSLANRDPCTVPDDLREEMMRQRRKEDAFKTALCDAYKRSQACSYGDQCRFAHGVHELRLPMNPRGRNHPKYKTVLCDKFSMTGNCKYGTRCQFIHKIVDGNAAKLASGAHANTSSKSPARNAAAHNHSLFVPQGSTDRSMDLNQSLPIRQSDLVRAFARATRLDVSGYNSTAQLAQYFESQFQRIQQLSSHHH

[2] = molecular target: T2, Zinc finger protein mex-5 (Caenorhabditis elegans, UniProt Q9XUB2); assay: potency of MEX-5 RNA-binding blockers – biochemical, C. elegans, fluorescence polarization, dose response (AID 1960)
T2 sequence (Q9XUB2 whole entry): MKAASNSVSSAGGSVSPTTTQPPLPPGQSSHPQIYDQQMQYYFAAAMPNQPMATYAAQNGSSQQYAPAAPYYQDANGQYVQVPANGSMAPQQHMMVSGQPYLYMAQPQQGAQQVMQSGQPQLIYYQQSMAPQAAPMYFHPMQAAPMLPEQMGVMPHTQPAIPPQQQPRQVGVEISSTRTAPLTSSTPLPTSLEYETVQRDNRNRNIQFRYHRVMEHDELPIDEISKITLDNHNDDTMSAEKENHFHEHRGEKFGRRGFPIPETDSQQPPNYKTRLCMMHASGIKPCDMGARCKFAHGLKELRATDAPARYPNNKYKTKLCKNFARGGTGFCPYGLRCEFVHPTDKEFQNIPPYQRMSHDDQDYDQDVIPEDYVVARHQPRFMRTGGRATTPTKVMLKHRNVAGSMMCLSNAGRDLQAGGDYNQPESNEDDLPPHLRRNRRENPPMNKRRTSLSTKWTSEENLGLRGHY

NS3 = NS3 (Hepatitis C virus, UniProt A3EZJ3); assay: PubChem AID 2173; set-up: species or system Hepacivirus hominis
[3] = molecular target: T3, Tyrosine-protein phosphatase non-receptor type 7 (Homo sapiens, UniProt P35236); assay type: functional
T3 sequence (P35236 whole entry): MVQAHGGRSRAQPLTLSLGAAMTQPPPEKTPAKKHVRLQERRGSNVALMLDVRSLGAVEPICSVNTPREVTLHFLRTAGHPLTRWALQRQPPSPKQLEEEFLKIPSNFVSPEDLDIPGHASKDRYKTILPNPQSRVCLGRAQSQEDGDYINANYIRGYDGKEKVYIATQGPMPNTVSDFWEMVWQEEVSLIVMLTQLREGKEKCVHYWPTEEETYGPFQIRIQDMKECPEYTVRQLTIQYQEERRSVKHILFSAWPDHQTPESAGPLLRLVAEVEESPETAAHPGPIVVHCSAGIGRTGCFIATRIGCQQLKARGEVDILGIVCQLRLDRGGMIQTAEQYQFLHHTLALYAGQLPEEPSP

[4] = molecular target: Glyceraldehyde-3-phosphate dehydrogenase (Homo sapiens, UniProt P04406)
[5] = molecular target: Heat shock cognate 71 kDa protein (Homo sapiens, UniProt P11142); assay: In Vitro Hsc70 Dose Response Fluorescence Polarization Assay. [Related pubchem assays: 1072 ]
[6] = molecular target: Heat shock 70 kDa protein 1A (Homo sapiens, UniProt P0DMV8); assay: inhibition of Hsp70 binding activity – biochemical, fluorescence polarization, SAR follow-up (AID 1072)
[7] = molecular target: T4, Dual specificity protein phosphatase 6 (Rattus norvegicus, UniProt Q64346);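 further: in vitro confirmatory secondary MKP-3 assay designed to detect irreversible or slow-binding inhibitors; recombinant His-tagged rat MKP-3 acting on the substrate OMFP; inhibitor potency from reduced phosphatase rate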
T4 sequence (Q64346 whole entry): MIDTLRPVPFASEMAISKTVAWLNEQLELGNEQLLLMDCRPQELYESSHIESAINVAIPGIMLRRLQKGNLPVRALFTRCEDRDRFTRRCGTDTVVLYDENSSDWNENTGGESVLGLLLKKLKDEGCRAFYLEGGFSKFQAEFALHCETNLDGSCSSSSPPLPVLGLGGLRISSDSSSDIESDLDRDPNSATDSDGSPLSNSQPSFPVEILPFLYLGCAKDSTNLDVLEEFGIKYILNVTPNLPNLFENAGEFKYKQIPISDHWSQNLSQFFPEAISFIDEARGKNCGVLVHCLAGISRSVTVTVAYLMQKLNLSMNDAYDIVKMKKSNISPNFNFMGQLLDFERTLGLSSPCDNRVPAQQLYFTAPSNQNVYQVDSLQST

[8] = tested on: Streptococcus sp. 'group A'; assay: Streptococcus pyogenes SK(-)GAS viability under kanamycin – luminescence, BacTiterGlo, confirmation, counter-screen for streptokinase expression inhibitor project, dose response (AID 1900); assay type: functional, organism-based
Streptococcus [9] = assay: Luminescence Microorganism-Based Dose Response Follow up to Identify Compounds Cytotoxic to Streptococcus. [Related pubchem assays: 1677 (Project Summary), 1915, 1914, 1902 (Retest at Dose), 1900 (Counter Screen), 1662 (Primary HTS)]; assay type: functional, organism-based
Streptokinase A = molecular target: T5, Streptokinase A (Streptococcus pyogenes serotype M1, UniProt P10520); assay: viability-normalized secreted streptokinase activity reduction – plasminogen activation absorbance, OD405, dose response (AID 1914); assay type: functional, Streptococcus pyogenes M1 GAS;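 further: secreted streptokinase activity via plasminogen activation per viability signal from cell pellet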
T5 sequence (P10520 whole entry): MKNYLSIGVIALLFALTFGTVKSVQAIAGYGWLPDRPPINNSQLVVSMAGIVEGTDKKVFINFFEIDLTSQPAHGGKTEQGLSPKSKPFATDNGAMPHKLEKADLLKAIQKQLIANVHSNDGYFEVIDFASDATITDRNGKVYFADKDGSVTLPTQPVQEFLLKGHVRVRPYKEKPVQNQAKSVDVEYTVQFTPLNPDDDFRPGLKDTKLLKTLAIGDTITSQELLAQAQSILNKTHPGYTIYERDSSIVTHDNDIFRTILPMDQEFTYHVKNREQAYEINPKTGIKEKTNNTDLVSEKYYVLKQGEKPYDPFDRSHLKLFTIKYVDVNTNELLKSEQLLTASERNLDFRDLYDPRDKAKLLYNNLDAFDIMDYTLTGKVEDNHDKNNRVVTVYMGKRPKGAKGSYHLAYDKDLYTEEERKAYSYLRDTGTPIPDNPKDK

Streptococcus [10] = assay: GAS UMAA2166 growth inhibition – luminescence, BacTiterGlo, counter-screen for streptokinase expression inhibitor project, dose response (AID 1915); assay type: functional, organism-based;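 further: potency for reduction of bacterial viability or growth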
Cytochrome P450 2D6 = Cytochrome P450 2D6 (Homo sapiens, UniProt P10635); assay: qHTS Assay for Inhibitors and Substrates of Cytochrome P450 2D6. [Related pubchem assays: 410 ]; assay type: ADME; details: read-out: Potency
Cysteine protease ATG4B = molecular target: T6, Cysteine protease ATG4B (Homo sapiens, UniProt Q9Y4P1); assay type: functional;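 further: Fluorescence-based dose-response confirmation assay measuring inhibition of ATG4B activity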
T6 sequence (Q9Y4P1 whole entry): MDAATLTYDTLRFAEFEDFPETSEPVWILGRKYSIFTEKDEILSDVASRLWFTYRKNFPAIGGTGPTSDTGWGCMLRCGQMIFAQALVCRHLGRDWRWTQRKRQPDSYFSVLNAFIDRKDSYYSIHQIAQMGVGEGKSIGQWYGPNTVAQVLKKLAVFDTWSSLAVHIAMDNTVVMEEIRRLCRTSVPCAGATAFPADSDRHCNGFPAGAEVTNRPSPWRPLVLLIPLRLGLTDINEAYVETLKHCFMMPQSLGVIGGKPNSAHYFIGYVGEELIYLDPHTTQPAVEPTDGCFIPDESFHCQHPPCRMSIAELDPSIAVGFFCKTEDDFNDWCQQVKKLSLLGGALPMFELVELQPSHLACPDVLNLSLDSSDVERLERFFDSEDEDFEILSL

[11] = molecular target: Heat shock protein HSP 90-alpha (Homo sapiens, UniProt P07900); assay type: functional, organism-based
Phospholipase A2 = Phospholipase A2 (Homo sapiens, UniProt P04054); assay type: functional;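 further: confirmatory dose-response counterscreen on phospholipase A2, testing hits that came from an ultra-high-throughput screen for ATG4B inhibitors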
Fatty acid synthase = Fatty acid synthase (Homo sapiens, UniProt P49327); assay: inhibition of human FAS-TE enzyme activity – biochemical, kinetic fluorescence intensity, dose response (AID 624326); assay type: functional;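 further: rate of fluorescence rise from hydrolysis of a fluorogenic O-methyl fluorescein ester substrate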
[12] = CellTiter-Glo luminescence survival assay, SW480 colon tumor line, concentration-response curve, half-maximal inhibitory concentration (AID 1117338); assay type: functional
[13] = RKO cell viability reduction, dose response, CellTiter-Glo luminescence (AID 1117322); assay type: functional
[14] = cytotoxicity toward HCT116 cells – cell-based, CellTiter-Glo luminescence, IC50, dose response (AID 1117332); assay type: functional; details: HCT-116
[15] = SNU-C1 cell viability reduction, dose response, CellTiter-Glo luminescence (AID 1117323); assay type: functional, cell-based
[16] = glucagon-like peptide-1 release potency in STC-1, concentration-response, half-maximal inhibitory concentration in the STC-1 line (AID 1117345); assay type: functional, cell-based
[17] = cytotoxicity toward Colo320 cells – cell-based, CellTiter-Glo luminescence, IC50, dose response (AID 1117334); assay type: functional; details: COLO 320
[18] = Reduced DLD-1 viability, concentration-response, CellTiter-Glo luminescence (AID 1117352); assay type: functional
[19] = HCT116 cell viability decrease, GSK3B pretreatment – CellTiter-Glo, IC50, dose response (AID 1117339); assay type: functional; details: HCT-116
[20] = Potency on glucagon-like peptide 1 release, dose-response in NCI-H716 cell line, half maximal inhibitory concentration (AID 1117344); assay type: functional, cell-based
[21] = molecular target: Voltage-gated inwardly rectifying potassium channel KCNH2 (Homo sapiens, UniProt Q12809); details: Potency;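 further: confirmatory quantitative high-throughput screen measuring inhibition of hERG channel activity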

Sequence of Glyceraldehyde-3-phosphate dehydrogenase (P04406 whole entry): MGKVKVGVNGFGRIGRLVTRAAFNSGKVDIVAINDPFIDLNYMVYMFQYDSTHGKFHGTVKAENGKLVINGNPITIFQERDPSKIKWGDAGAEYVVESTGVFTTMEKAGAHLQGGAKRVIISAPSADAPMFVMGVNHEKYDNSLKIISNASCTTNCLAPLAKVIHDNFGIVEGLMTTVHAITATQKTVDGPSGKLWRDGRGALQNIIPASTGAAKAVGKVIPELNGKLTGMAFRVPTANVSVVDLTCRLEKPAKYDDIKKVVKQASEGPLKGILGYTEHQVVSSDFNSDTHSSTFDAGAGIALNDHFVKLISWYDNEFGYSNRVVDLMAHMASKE
Sequence of Fatty acid synthase (P49327 whole entry): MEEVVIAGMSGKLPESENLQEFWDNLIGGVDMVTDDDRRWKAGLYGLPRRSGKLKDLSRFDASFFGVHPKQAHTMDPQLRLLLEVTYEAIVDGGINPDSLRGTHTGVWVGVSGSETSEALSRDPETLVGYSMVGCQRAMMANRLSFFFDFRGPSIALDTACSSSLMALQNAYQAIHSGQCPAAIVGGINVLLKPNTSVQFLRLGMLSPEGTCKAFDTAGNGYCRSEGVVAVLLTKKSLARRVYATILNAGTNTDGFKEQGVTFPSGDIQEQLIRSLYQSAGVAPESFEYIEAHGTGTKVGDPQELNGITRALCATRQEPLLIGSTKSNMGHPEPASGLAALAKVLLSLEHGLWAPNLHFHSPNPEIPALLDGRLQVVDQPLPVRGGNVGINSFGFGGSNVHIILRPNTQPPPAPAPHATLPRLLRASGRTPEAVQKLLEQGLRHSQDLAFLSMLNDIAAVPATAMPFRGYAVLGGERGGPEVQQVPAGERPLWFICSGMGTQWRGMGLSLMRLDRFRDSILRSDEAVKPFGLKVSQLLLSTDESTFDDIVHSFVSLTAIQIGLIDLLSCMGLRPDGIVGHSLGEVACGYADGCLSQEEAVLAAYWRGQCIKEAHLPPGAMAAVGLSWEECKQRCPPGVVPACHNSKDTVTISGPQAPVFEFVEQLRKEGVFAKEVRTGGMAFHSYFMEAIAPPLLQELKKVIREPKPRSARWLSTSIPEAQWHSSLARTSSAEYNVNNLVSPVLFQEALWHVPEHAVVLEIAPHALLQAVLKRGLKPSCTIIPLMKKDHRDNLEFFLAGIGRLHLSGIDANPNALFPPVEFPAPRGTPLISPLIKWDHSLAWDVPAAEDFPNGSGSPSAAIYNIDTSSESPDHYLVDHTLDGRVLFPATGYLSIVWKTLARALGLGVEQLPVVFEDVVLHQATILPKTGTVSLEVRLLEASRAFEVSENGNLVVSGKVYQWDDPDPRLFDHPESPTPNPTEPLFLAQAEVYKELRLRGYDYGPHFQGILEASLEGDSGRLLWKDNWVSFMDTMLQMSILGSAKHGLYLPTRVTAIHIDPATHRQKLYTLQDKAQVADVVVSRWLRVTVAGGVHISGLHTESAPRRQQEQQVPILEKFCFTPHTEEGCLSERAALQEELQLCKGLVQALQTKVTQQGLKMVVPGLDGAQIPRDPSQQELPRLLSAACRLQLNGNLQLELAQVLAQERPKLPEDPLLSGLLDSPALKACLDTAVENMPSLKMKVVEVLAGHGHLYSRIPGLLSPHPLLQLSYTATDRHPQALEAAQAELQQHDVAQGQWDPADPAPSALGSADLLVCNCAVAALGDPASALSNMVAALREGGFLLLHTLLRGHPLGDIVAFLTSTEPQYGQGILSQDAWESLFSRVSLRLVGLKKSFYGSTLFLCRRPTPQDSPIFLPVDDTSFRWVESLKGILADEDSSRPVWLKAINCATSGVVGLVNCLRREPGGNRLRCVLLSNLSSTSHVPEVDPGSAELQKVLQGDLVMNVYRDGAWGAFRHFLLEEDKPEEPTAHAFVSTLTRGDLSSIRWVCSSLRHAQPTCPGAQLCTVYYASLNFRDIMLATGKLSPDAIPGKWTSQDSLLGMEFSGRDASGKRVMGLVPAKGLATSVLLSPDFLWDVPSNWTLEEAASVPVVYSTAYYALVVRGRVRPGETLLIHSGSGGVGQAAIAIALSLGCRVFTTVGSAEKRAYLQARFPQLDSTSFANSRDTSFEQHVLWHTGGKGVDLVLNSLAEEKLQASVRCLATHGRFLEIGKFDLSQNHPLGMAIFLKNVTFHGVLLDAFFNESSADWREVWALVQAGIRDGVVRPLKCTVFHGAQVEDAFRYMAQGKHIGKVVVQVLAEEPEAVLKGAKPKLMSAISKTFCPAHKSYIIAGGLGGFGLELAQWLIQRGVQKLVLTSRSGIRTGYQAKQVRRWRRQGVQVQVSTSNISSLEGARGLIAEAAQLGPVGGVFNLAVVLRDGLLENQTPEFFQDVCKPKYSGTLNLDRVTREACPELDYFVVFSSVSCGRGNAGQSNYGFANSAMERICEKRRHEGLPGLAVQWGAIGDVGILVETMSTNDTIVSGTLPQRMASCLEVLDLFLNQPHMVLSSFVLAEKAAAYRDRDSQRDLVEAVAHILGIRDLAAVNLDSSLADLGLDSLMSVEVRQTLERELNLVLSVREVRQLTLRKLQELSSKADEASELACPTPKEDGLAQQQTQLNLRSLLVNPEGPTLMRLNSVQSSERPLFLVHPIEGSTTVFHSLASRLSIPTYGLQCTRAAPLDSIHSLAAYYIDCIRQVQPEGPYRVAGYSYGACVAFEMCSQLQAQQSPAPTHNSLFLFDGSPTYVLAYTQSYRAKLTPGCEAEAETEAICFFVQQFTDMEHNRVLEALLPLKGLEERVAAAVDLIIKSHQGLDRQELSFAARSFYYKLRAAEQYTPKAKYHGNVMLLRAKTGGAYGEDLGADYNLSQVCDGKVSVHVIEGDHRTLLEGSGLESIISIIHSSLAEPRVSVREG
Sequence of Cytochrome P450 2D6 (P10635 whole entry): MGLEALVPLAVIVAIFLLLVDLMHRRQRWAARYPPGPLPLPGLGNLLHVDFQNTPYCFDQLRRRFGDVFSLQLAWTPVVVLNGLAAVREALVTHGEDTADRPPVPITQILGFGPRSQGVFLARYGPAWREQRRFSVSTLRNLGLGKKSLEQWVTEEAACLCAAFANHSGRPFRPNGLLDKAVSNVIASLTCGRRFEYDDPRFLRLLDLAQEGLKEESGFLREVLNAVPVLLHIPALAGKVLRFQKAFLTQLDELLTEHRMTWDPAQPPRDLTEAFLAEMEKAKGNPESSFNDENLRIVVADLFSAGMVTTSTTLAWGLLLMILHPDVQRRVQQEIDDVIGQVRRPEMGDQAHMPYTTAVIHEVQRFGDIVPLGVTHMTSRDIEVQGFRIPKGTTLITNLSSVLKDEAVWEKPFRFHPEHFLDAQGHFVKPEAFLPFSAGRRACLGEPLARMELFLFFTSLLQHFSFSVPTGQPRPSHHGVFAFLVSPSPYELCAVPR
Sequence of Heat shock 70 kDa protein 1A (P0DMV8 whole entry): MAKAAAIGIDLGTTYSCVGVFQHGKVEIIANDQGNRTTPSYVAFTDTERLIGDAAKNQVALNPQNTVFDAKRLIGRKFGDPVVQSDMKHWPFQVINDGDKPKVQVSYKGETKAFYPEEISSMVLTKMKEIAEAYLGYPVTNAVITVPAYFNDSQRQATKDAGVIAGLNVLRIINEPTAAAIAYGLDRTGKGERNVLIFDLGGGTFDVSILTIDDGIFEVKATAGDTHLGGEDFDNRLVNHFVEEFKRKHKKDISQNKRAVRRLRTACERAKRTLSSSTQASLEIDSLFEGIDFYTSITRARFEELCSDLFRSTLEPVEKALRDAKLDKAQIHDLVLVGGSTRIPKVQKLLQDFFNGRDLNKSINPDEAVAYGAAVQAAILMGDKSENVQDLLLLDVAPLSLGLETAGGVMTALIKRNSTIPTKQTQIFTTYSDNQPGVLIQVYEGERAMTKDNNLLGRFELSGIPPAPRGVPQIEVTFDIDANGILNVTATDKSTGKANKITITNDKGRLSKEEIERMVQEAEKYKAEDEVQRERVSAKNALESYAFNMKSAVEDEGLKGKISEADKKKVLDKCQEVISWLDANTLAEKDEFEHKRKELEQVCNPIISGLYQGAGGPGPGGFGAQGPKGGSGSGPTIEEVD
Sequence of Phospholipase A2 (P04054 whole entry): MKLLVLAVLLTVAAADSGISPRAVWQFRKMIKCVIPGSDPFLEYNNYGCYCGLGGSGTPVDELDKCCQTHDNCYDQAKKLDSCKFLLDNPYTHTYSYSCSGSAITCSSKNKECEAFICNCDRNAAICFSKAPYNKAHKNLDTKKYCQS
Sequence of Heat shock cognate 71 kDa protein (P11142 whole entry): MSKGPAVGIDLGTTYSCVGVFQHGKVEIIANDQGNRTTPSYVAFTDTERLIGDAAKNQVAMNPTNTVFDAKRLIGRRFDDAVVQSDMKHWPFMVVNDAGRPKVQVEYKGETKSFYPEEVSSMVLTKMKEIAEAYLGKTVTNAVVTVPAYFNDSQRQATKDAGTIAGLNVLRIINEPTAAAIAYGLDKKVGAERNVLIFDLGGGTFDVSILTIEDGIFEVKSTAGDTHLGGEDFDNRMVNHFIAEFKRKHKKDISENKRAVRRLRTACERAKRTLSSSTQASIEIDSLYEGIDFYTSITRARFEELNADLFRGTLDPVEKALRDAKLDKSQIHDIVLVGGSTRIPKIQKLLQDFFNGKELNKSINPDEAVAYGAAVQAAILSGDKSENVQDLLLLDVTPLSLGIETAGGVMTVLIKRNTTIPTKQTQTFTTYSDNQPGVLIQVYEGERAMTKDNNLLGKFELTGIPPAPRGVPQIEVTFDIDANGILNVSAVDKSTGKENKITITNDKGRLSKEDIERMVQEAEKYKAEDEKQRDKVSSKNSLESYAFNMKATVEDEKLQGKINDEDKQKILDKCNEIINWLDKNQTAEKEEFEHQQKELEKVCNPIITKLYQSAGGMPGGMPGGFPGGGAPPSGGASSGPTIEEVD

COc1cccc(C2C(C#N)=C(N)OC3=C2C(=O)CC(c2ccco2)C3)c1OCc1ccc(F)cc1 (configuration not stated)
EC50 [1]: > 300 µM (not active)
EC50 [2]: > 300 µM (not active)
IC50 (NS3): 33.5 µM (not active)

COC(=O)c1ccccc1OC(=O)c1ccc2c(c1)C1C=CCC1C(C(=O)O)N2 (configuration not stated)
IC50 [3]: 2.8 µM (active)
IC50 [4]: 93.6 µM (active)
IC50 [5]: 115 µM (active)
IC50 [6]: 28 µM (active)
IC50 [7]: 17 µM (active)

O=C(NC(=S)Nc1ccccc1N1CCCC1)c1ccccc1Br
EC50 [8]: 32.3 µM (active)
EC50 (Streptococcus [9]): > 500 µM (not active)
EC50 (Streptokinase A): 6.61 µM (active)
EC50 (Streptococcus [10]): > 150 µM (not active)

Oc1ccc(Cl)cc1Sc1cc(Cl)ccc1O [FENTICLOR]
AC50 (Cytochrome P450 2D6): 3.16 µM (inconclusive)
IC50 (Cysteine protease ATG4B): 11 µM (active)
AC50 [11]: 4.11 µM (active)
IC50 (Phospholipase A2): 15.2 µM (active)
IC50 (Fatty acid synthase): 3.52 µM (active)
IC50 [12]: 0.579 µM (active)
IC50 [13]: 0.116 µM (active)
IC50 [14]: 0.183 µM (active)
IC50 [15]: 1.85 µM (active)
IC50 [16]: > 20 µM (inactive)
IC50 [17]: 0.075 µM (active)
IC50 [18]: 0.301 µM (active)
IC50 [19]: 0.148 µM (active)
IC50 [20]: 21.3 µM (inactive)
AC50 [21]: 31.6 µM (inconclusive)
